Assay results reported in patent US10472349B2, “Salt of pyridinyl amino pyrimidine derivative, preparation method therefor, and application thereof” (SHANGHAI ALLIST PHARMACEUTICALS, INC., priority 2016, dated 2019).
Counter-ions that a name gives are not always drawn.

How the values were obtained:
[1] = Drug absorption experiment in SD rats, intragastric administration; assay type: in vivo, SD rats (Sprague Dawley rats); settings: for half-life: read-out: T1/2 (elimination half-life) (converted)
Procedure: The determination method for the absolute bioavailability of the intragastric administration of the mesylate salts of the compound of formula (I) is as follows: • For intravenous administration: Healthy SD rats are randomly grouped. The tested compound is administered in a certain dosage D through the intravenous administration. The blood samples are collected through the retrobulbar venous plexus before the administration and 5 min, 15 min, 0.5 h, 1.0 h, 2.0 h, 4.0 h, 8.0 h, 12 h and 24 h after the administration, and separated to give plasmas. […] The tested substance is administered in a certain dosage D through the intragastric administration.
After dosage calibration, the absolute bioavailability F is calculated by the area under the drug concentration-time curve (AUC0-t). The calculation equation is as follows: F=(AUCintragastric×Dintravenous)/(AUCintravenous[…])×100%.
For intragastric administration: 16 healthy (half male and half female) SD rats with 200-280 g body weight, provided by Shanghai Sippr-BK laboratory animal Co. Ltd., were assigned randomly to 4 groups.
After dosage calibration, the absolute bioavailability F was obtained by calculation of AUC0-t. The calculation equation was as follows: F=(AUCintragastric×Dintravenous)/(AUCintravenous×Dintragastric)×100%. The obtained absolute bioavailability F data are shown in the above table 2.

[2] = Drug absorption experiment in SD rats, intravenous administration; assay type: in vivo, SD rats (Sprague Dawley rats); settings: plasma
Procedure: The determination method for the absolute bioavailability of the intragastric administration of the mesylate salts of the compound of formula (I) is as follows: • For intravenous administration: Healthy SD rats are randomly grouped. The tested compound is administered in a certain dosage D through the intravenous administration. The blood samples are collected through the retrobulbar venous plexus before the administration and 5 min, 15 min, 0.5 h, 1.0 h, 2.0 h, 4.0 h, 8.0 h, 12 h and 24 h after the administration, and separated to give plasmas. The concentration of the drug in plasma is determined with the liquid chromatography-tandem mass spectrometry method to give a drug concentration-time curve. • For intragastric administration: Healthy SD rats are randomly grouped. The tested substance is administered in a certain dosage D through the intragastric administration. The intravenous blood samples are collected through the rat's retrobulbar venous plexus before the administration and 0.5, 1.0, 2.0, 4.0, 6.0, 8.0, 10, 12 and 24 h after the administration, and separated to give plasmas. The concentration of the drug in plasma is determined with the liquid chromatography-tandem mass spectrometry method to give a drug concentration-time curve.
For intravenous administration: 16 healthy (half male and half female) SD rats with 200-280 g body weight, provided by Shanghai Sippr-BK laboratory animal Co. Ltd., were assigned randomly to 4 groups. […] 0.2 ml of the intravenous blood samples were collected through the rat's retrobulbar venous plexus before the administration and 5 min, 15 min, 0.5 h, 1.0 h, 2.0 h, 4.0 h, 8.0 h, 12 h and 24 h after the administration, and separated to give plasmas. The concentration of the drug in plasma was determined with the liquid chromatography-tandem mass spectrometry method to give a drug concentration-time curve.
T1/2: elimination half-life; Cmax: maximum drug concentration in plasma; AUC0-t: area under drug concentration-time curve.

[3] = system: subcutaneously transplanted tumors of human lung cancer H1975; experiment: Inhibition effect on the growth of subcutaneously transplanted tumors of human lung cancer H1975-bearing nude mice; assay type: in vivo; settings: 25 mg/kg intragastric, once per day for 21 days
Text: The pharmacodynamics of the mesylate salts of the compound of formula (I) in terms of inhibiting the growth of transplanted tumors in animal may be assayed by conventional methods. One preferable evaluation method aims to the inhibitory effect on the growth of subcutaneously transplanted tumors of human lung cancer H1975-bearing nude mice. The experimental method may be as follows: human lung cancer H1975 cell strain (5×10^6/each mouse) is inoculated to nude mice subcutaneously at the right side of the back thereof. After the tumors grow to 100-150 mm^3 on average, the animals are divided into groups randomly according to the tumor size and the animal weight. […] During the entire experimental process, the animal weight and the tumor size are measured twice per week, so as to observe whether or not the toxic reaction occurs.
The tumor volume is calculated as follows: Tumor volume (mm^3)=0.5×Tumor major diameter×Tumor minor diameter×Tumor minor diameter. […]
Cell cultivation: H1975 was placed in a RPMI-1640 medium containing 10% FBS, and cultivated in a temperature-constant incubator containing 5% CO2 at 37° C. The cells in exponential growth phase were collected and counted for inoculation. […]
The tumor volume was calculated as follows: Tumor volume (mm^3)=0.5×Tumor major diameter×Tumor minor diameter×Tumor minor diameter.

[4] = both sexes, Sprague-Dawley, rat, plasma, po, intragastric, dosage 10 (Example 1), 10 (Example 2), 6 (Comparative Example 1), 10 (Comparative Example 2) mg/kg, plasma, read-out: AUC0-t
[5] = both sexes, Sprague-Dawley, rat, plasma, po, intragastric, dosage 10 (Example 1), 10 (Example 2), 6 (Comparative Example 1), 10 (Comparative Example 2) mg/kg, plasma, read-out: Cmax
[6] = both sexes, Sprague-Dawley, rat, plasma, po, intragastric, dosage 10 (Example 1), 10 (Example 2), 6 (Comparative Example 1), 10 (Comparative Example 2) mg/kg, plasma
[7] = SD rats, intravenous, dosage 2.5 (Example 1), 4.0 (Example 2), 3.0 (Comparative Example 1), 4.0 (Comparative Example 2) mg/kg
[8] = intragastric, dosage 10 (Example 1), 10 (Example 2), 6 (Comparative Example 1), 10 (Comparative Example 2) mg/kg, plasma

Structure (SMILES): C=CC(=O)Nc1cc(Nc2nccc(-c3cn(C)c4ccccc34)n2)c(OC(C)C)nc1N(C)CCN(C)C [Comparative Example 1, reference compound]
- AUC(0-t) [1, 4]: 77.7 ng·h/mL
- Cmax [1, 5]: 12.6 ng/mL
- half-life [1, 6]: 8.6 h

Structure (SMILES): C=CC(=O)Nc1cc(Nc2ncc(Cl)c(-c3cn(C)c4ccccc34)n2)c(OC(C)C)nc1N(C)CCN(C)C [Comparative Example 2, reference compound]
- AUC(0-t) [1, 4]: 172 ng·h/mL
- Cmax [1, 5]: 28.3 ng/mL
- half-life [1, 6]: 5.76 h

Structure (SMILES): C=CC(=O)Nc1cc(Nc2nccc(-c3cn(C)c4ccccc34)n2)c(OCC(F)(F)F)nc1N(C)CCN(C)C [Example 1, N-{2-{[2-(dimethylamino)ethyl](methyl)amino}-6-(2,2,2-trifluoroethoxy)-5-{[4-(1-methyl-1H-indol-3-yl)pyrimidin-2-yl]amino}pyridin-3-yl}acrylamide]
- AUC(0-t) [2, 7]: 307.3 ng·h/mL
- Cmax [2, 7]: 81.3 ng/mL
- T1/2 (elimination half-life) [2, 7]: 3.96 h
- AUC(0-t) [1, 4]: 232 ng·h/mL
- F (absolute bioavailability) ([1]; intragastric vs intravenous, calculated from AUC0-t after dosage calibration): 18.85%
- Cmax [1, 8]: 17.6 ng/mL

Structure (SMILES): C=CC(=O)Nc1cc(Nc2nccc(-c3cn(C)c4ccccc34)n2)c(OCC(F)(F)F)nc1N(C)CCN(C)C [Example 2, mesylate salt of N-{2-{[2-(dimethylamino)ethyl](methyl)amino}-6-(2,2,2-trifluoroethoxy)-5-{[4-(1-methyl-1H-indol-3-yl)pyrimidin-2-yl]amino}pyridin-3-yl}acrylamide]
- AUC(0-t) ([2]; both sexes, Sprague-Dawley, rat, iv, read-out: AUC0-t): 406 ng·h/mL
- Cmax ([2]; both sexes, Sprague-Dawley, rat, iv, read-out: Cmax): 430 ng/mL
- half-life ([2]; both sexes, Sprague-Dawley, rat, iv, read-out: T1/2 (elimination half-life) (converted)): 3.13 h
- bioavailability ([1]; both sexes, Sprague-Dawley, rat, plasma, oral, intragastric vs intravenous, calculated from AUC0-t after dosage calibration, read-out: F (absolute bioavailability)): 28.3%
- AUC(0-t) [1, 8]: 287 ng·h/mL
- Cmax [1, 8]: 44.54 ng/mL
- T1/2 (elimination half-life) [1, 8]: 8.33 h
- Inhibition effect on the growth of subcutaneously transplanted tumors [3]: good inhibition effect
- Safety (body weight, toxic reaction) [3]: good safety
